The values that follow come from ChEMBL document CHEMBL1201862, “PubChem BioAssay data set” (2004).

In general, AC50 refers to the midpoint of the concentration-response curve, whichever way the signal moves.

For one series, the target named is T1, Cytochrome P450 1A2 (Homo sapiens, UniProt P05177).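 Note: PubChem cytochrome P450 panel assay, CYP1A2 panel member.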
T1 sequence (P05177 whole entry): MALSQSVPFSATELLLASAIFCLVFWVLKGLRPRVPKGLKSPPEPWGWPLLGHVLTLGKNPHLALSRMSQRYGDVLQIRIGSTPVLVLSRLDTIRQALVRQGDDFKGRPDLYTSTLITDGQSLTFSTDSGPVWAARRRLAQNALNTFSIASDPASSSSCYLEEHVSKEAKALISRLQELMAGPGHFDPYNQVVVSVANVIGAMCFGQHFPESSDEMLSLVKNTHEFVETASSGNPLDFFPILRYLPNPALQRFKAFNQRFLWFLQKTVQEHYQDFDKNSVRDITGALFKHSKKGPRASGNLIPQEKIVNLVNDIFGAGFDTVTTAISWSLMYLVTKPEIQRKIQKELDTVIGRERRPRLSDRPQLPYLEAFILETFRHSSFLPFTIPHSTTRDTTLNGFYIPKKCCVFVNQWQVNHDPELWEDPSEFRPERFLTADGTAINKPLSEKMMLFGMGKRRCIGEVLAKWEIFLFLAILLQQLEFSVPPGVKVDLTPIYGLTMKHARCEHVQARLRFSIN

Another series has as its target Cytochrome P450 3A4 (Homo sapiens, UniProt P08684).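 Note: CYP3A4 tested as one member of a cytochrome P450 panel screen.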
Another series concerns the target Cytochrome P450 2C9 (Homo sapiens, UniProt P11712).
A short description of series [1]: NIH-3T3 fibroblast cytotoxicity, dose response, cytotoxicity control, cell-based, fluorescence, Alamar Blue, secondary assay (AID 2327).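 Note: NIH-3T3 mouse fibroblasts cultured with fluconazole at 8 µg/mL.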 Format: functional. For orientation: The colour change of resazurin is a common sign of viable cells or microbes.
A short description of series [2]: fluconazole-exposed Candida albicans growth modulators – fluorescence, retest, confirmation (AID 2467). Format: functional, cell-based.
For series [3], the target named is T2, RNA-binding protein pos-1 (Caenorhabditis elegans, UniProt G5EF15).
T2 sequence (G5EF15 whole entry): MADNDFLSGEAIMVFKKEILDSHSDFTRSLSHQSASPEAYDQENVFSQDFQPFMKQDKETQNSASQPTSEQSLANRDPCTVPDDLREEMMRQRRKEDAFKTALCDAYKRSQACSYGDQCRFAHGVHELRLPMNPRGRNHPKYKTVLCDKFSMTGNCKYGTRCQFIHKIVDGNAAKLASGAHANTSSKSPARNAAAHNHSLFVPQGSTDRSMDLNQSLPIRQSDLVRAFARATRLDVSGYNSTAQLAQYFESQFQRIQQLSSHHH
The experiment in a line: disruptors of C. elegans POS-1 RNA interaction – biochemical, fluorescence polarization, dose response (AID 1964).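 Note: purified POS-1 fused to maltose binding protein made in E. coli; potency of compounds blocking POS-1 binding to fluorescent RNA.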 For orientation: In fluorescence polarisation assays a small probe gives low polarisation when free and higher when bound to something large.

Series [4] addresses T3, Zinc finger protein mex-5 (Caenorhabditis elegans, UniProt Q9XUB2).
T3 sequence (Q9XUB2 whole entry): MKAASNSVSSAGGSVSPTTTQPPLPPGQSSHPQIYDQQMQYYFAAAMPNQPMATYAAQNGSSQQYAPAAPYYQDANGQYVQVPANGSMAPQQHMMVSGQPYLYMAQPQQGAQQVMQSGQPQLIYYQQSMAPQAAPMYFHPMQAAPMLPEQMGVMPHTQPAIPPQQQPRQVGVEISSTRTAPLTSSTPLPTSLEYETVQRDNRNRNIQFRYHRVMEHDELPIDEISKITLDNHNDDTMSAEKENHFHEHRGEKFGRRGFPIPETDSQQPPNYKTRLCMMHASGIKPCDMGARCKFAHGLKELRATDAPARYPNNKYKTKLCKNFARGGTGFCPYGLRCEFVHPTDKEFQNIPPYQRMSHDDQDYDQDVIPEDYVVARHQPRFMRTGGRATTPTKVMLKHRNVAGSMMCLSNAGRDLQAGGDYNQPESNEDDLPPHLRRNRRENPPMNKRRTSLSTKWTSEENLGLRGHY
The experiment in a line: potency of MEX-5 RNA-binding blockers – biochemical, C. elegans, fluorescence polarization, dose response (AID 1960).

In series [5] the target is T4, Corticotropin-releasing factor receptor 2/Corticotropin-releasing factor-binding protein (Homo sapiens, UniProt P24387+Q13324).
T4 sequence (Q13324 whole entry): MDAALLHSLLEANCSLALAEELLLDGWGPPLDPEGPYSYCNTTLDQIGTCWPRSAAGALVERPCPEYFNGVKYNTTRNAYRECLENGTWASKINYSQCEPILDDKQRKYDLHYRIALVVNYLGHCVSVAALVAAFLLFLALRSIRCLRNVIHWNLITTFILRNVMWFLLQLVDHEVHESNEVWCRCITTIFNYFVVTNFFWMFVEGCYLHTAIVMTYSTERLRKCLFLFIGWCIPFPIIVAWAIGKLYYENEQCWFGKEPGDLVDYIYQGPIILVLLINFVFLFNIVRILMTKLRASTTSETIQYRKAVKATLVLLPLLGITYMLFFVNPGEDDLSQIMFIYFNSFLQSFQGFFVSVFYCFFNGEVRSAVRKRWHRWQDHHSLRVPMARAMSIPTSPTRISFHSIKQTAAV
T4 sequence (P24387 whole entry): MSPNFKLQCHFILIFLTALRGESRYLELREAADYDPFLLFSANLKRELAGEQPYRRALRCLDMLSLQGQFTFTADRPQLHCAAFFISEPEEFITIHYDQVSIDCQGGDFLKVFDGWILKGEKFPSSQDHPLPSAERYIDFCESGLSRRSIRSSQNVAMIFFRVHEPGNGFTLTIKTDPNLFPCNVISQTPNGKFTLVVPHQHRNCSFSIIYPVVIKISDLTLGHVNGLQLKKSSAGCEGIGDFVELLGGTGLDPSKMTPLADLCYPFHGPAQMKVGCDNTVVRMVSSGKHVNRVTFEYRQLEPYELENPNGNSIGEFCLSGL
The experiment in a line: activators of CRF receptor 2 with binding protein – uHTS hits, confirmation (AID 602473). To be noted: read-out: EC50_Mean. The format is functional.

In a further series the target is Cytochrome P450 2C19 (Homo sapiens, UniProt P33261). Briefly: Cytochrome panel assay with activity outcomes. Panel member name: p450-cyp2c19 Compounds with AC50 equal or less than 10 uM are considered active. The format is functional.

SMILES strings stand for the structures. Activity calls are given as the source filed them. A value given as a limit tells only on which side of the number the result lay.

Chain of Cytochrome P450 2C9 (P11712 whole entry): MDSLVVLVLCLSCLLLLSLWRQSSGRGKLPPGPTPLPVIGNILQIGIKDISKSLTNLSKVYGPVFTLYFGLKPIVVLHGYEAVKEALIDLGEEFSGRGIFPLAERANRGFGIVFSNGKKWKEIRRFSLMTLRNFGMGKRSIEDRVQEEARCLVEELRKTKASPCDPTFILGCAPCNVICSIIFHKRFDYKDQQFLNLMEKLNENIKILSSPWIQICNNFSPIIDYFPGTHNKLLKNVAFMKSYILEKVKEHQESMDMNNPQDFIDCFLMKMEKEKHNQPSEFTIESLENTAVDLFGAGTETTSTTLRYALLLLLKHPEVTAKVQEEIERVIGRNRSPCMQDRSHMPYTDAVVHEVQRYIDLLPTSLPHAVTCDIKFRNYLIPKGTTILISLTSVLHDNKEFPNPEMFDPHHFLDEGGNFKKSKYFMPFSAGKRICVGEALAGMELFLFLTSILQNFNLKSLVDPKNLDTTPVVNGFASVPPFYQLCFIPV
Chain of Cytochrome P450 3A4 (P08684 whole entry): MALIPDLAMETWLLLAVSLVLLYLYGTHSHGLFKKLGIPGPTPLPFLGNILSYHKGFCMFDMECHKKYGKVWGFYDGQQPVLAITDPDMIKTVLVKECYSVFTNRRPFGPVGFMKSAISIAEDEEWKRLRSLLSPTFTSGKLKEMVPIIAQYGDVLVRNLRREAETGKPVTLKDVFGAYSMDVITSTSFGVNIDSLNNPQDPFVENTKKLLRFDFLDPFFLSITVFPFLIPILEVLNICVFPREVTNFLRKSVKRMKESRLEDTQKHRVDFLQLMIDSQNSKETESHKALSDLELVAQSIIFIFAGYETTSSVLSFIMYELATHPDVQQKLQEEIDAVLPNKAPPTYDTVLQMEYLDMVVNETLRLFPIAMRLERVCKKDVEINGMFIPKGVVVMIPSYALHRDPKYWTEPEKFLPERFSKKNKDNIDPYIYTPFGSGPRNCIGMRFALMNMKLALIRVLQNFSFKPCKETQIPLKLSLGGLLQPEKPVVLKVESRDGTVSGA
Chain of Cytochrome P450 2C19 (P33261 whole entry): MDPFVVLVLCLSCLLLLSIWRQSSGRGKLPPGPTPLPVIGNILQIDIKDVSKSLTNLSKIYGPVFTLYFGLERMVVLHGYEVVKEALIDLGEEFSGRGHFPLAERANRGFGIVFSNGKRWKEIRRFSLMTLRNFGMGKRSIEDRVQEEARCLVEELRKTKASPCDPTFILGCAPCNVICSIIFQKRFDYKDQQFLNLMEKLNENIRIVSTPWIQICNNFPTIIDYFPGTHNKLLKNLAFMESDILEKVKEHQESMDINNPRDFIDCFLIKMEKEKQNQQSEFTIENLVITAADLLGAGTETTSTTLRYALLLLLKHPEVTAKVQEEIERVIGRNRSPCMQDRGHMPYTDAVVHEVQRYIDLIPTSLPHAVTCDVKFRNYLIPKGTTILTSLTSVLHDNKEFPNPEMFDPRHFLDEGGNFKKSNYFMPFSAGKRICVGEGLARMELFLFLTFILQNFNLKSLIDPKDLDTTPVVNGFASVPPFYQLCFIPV

As to `Nc1nc(SCc2ccccc2)c2ncn(Cc3ccccc3)c2n1`, the concentration at half-maximal activity (AC50) was 0.251 µM (inconclusive) on Cytochrome P450 1A2, 3.98 µM (inconclusive) on Cytochrome P450 3A4 and 3.16 µM (inconclusive) at Cytochrome P450 2C9.
Consider `CC(C)c1nc(N2CCN(C(=O)c3ccco3)CC2)c2c3c(sc2n1)CCCC3`, for which the EC50 was > 150 µM (inactive) in series [1] and > 38 µM (not active) in series [2].
As for `COc1cccc(C2C(C(=O)c3ccc(C)cc3)=C(O)C(=O)N2Cc2ccco2)c1` (stereo unspecified), the EC50 in series [1] was > 160 µM (inconclusive); in [2], 3.1 µM (active).
`COc1ccccc1NC(=O)c1sc2nc(Cc3ccccc3)cc(C(F)(F)F)c2c1N`: the EC50 in series [3] is 9.55 µM (inconclusive); in series [4], 16.2 µM (active); in series [5] it was 6.15 µM (active).
Regarding `COc1cc(-c2nnc(COC(=O)c3c4c(nc5ccccc35)CCCC4)o2)cc(OC)c1OC`, the half-maximal activity concentration (AC50) on Cytochrome P450 1A2 was 14.1 µM (inconclusive).
With `N#Cc1c(NC(=O)CCC(=O)O)ccc2ccccc12`, the AC50 entry on Cytochrome P450 2C19 was “inconclusive”.
In the case of `Cc1cc(C(=O)CSC(=S)SC(C)(C)C)ccc1Cl`, the AC50 on Cytochrome P450 3A4 was 3.16 µM (inconclusive); at Cytochrome P450 2C9, 5.01 µM (inconclusive).
As to `Cc1ccc2c[nH]nc2c1NC(=S)NC(=O)c1ccccc1`, the half-maximal activity concentration (AC50) on Cytochrome P450 2C19 (read-out: AC50) is 11.2 µM (inconclusive).
Regarding `CC(=O)N1CCC2(CC1)CN(C(=O)Nc1cccc(C#N)c1)C2`, the AC50 on Cytochrome P450 1A2 was 12.6 µM (inconclusive).
Regarding `CN1CCc2nc(N)nc(-c3nc(N)nc4c3CN(C)CC4)c2C1`, the AC50 result on Cytochrome P450 2C19 was “inconclusive”.
For the compound `CC(C)(C)NC(=O)NC(=O)CN1CCCc2ccccc21`, the values for the EC50 in [1] and in [2] were > 150 µM (inactive) and > 38 µM (not active), respectively.
In the case of `CCC[C@@H]1C[C@@]1(CCC)C(NC(=O)c1cccs1)c1ccc(Cl)cc1` (stereo partly specified), the values for the AC50 at Cytochrome P450 1A2 and at Cytochrome P450 2C9 were 10 µM (inconclusive) and 5.01 µM (inconclusive), respectively.
Consider `COc1ccc(CNC(=O)CN(CC2CCCO2)C(=O)CNS(=O)(=O)c2ccccc2)cc1` (stereo unspecified), for which the half-maximal activity concentration (AC50) at Cytochrome P450 3A4 was 3.98 µM (inconclusive); at Cytochrome P450 2C9 it was 22.4 µM (inconclusive).
With `CCOc1cccc(CNCCNC(=O)c2nonc2N)c1`, the figures for the half-maximal activity concentration (AC50) on Cytochrome P450 1A2 and at Cytochrome P450 3A4 were 39.8 µM (inconclusive) and 5.01 µM (inconclusive), respectively.
Take `O=c1cnc2cnc(Oc3ccccc3)nc2n1C1CC1`: the AC50 at Cytochrome P450 2C19 (read-out: AC50) was 39.8 µM (inconclusive).
On the same count and under the same terms, to `CCOC(=O)C1=C(N)Oc2ccc(Br)cc2[C@@H]1[C@@H](C#N)C(=O)OCC` belongs 25.1 µM (inconclusive).
`Cn1cnc([N+](=O)[O-])c1SCC(=O)O`: the AC50 result at Cytochrome P450 2C19 is listed as “inconclusive”.
The same measure, in the same setting: under `CC(C)(C)COS(=O)OCC(C)(C)C` stands “inconclusive”.
On to `COc1cccc(C(C(=O)NC2CCCC2)N(C(=O)c2ccco2)c2ccc(-n3cnnn3)c(C)c2)c1OC` (stereo unspecified), for which the EC50 in series [1] was > 150 µM (inconclusive); in series [2], > 38 µM (not active).
On to `N#CCCn1c(=O)c(-c2cc(F)cc(F)c2)nc2cnc(Nc3ccccc3)nc21`, for which the AC50 on Cytochrome P450 1A2 was 3.16 µM (inconclusive).
Regarding `N#Cc1c2c(c(-n3cnc4ccccc43)n3c1nc1ccccc13)CCC2`, the AC50 at Cytochrome P450 1A2 is 25.1 µM (inconclusive); on Cytochrome P450 3A4, 3.16 µM (inconclusive); at Cytochrome P450 2C9 it was 10 µM (inconclusive).
Turning to `O=C1CC(N2CCN(C(c3ccccc3)c3ccccc3)CC2)C(=O)N1Cc1ccc(N2CCCC2=O)cc1` (stereo unspecified), the figures for the AC50 at Cytochrome P450 2C19 (read-out: AC50) and on Cytochrome P450 3A4 were 5.01 µM (inconclusive) and 22.4 µM (inconclusive), respectively.
Take `Cc1ccccc1C(C(=O)NC1CCCC1)N(C(=O)Cc1cccs1)c1ccc2c(c1)OCCO2` (stereo unspecified): the half-maximal activity concentration (AC50) on Cytochrome P450 2C9 was 0.891 µM (inconclusive).
For `COc1ccc2c3c([nH]c2c1)C1CC2C(CC(O)C(OC)C2C(=O)O)CN1CC3` (stereo unspecified), the EC50 in series [3] and in [4] was > 300 µM (not active) throughout.
Turning to `Cc1oc(-c2cccs2)[n+]([O-])c1C`, the AC50 at Cytochrome P450 1A2 is 25.1 µM (inconclusive).
For `CCOc1ccc(/C=C2\C(=O)c3ccccc3OC2c2ccccc2)cc1` (stereo unspecified), the half-maximal activity concentration (AC50) at Cytochrome P450 1A2 is 12.6 µM (inconclusive); on Cytochrome P450 2C9, 10 µM (inconclusive).
With `Cc1cc2oc(=O)c(CC(=O)NCCCO)c(C)c2c2occ(C(C)(C)C)c12`, the EC50 in [3] and in series [4] was > 300 µM (not active) throughout.
`COc1ccc(-n2c(=O)c(-c3ccc(Cl)cc3)nc3cncnc32)cc1`: the AC50 at Cytochrome P450 1A2 was 5.01 µM (inconclusive).
Consider `CCCc1nnc(NC(=O)c2cccs2)s1`, for which the AC50 at Cytochrome P450 2C19 (read-out: AC50) is 25.1 µM (inconclusive); on Cytochrome P450 2C9 it was 12.6 µM (inconclusive).
Turning to `CN1CCN(C(=O)c2cnn(-c3ccccc3)c2NC(=O)c2ccccc2)CC1`, the EC50 in [1] is > 150 µM (inactive); in series [2], > 38 µM (not active).
With `CN(C)N1C(N)=C(C#N)C(c2cccnc2)C2=C1CC(C)(C)CC2=O` (stereo unspecified), on Cytochrome P450 2C9, the AC50 is 0.0224 µM (inconclusive).
Same read-out and setting: under `O=C(NCc1ccccc1)C(c1ccncc1)N(C(=O)c1csnn1)C1CC1` (stereo unspecified) stands 1.78 µM (inconclusive).
Consider `CCCCOc1ccccc1N`, for which the AC50 at Cytochrome P450 1A2 and at Cytochrome P450 2C9 was 39.8 µM (inconclusive) throughout.
`Cc1ccc(N/N=C2\COC(C)(C)CC2=O)cc1`: the EC50 in series [1] was > 160 µM (inactive); in [2] it was > 38 µM (not active).
